Measured values: EPA's ToxRefDB 2

Columns and labels:
rat [1] = settings: Combined chronic toxicity/carcinogenicity, fischer, Oral, Feed, dose end: 2 year, group: systemic
rat [2] = settings: Subchronic oral toxicity in rodents, wistar, Feed, dose end: 13 week
dog [3] = settings: Chronic toxicity; beagle; Oral; Feed; dose end: 52 week; group: systemic; systemic / in life observation / clinical signs / abnormal gait + systemic / in life observation / clinical signs / abnormal posture + …
rabbit = settings: Prenatal developmental toxicity study, chinchilla, Oral, Gavage/Intubation, dose end: 18 GD, group: maternal
dog [4] = settings: Chronic toxicity, beagle, Oral, Feed, dose end: 26 week, group: systemic
dog [5] = settings: Chronic toxicity, beagle, Oral, Feed, dose end: 52 week, group: systemic
rat [6] = settings: Prenatal developmental toxicity study, wistar, Oral, Gavage/Intubation, dose end: 15 GD
mouse [7] = settings: Carcinogenicity, cd1, Oral, Feed, dose end: 80 week, group: systemic
mouse [8] = settings: Combined chronic toxicity/carcinogenicity, other, Oral, Feed, dose end: 23 month, group: systemic
rat [9] = settings: Multigenerational reproductive toxicity study, wistar, Oral, Feed, dose end: 3 generation
rat [10] = settings: Combined chronic toxicity/carcinogenicity, wistar, Oral, Feed, dose end: 104 week, group: systemic
dog [11] = settings: Subchronic oral toxicity in nonrodent, beagle, Feed, dose end: 13 week, group: systemic, systemic / in life observation / clinical signs / abnormal gait + systemic / in life observation / clinical signs / impaired reflex, nos + …
[12] = systemic / in life observation / body weight / body weight + systemic / in life observation / body weight / body weight gain + systemic / in…
[13] = group: cholinesterase, cholinesterase / cholinesterase / cholinesterase / cholinesterase (che)
[14] = group: systemic, systemic / clinical chemistry / chloride / chloride
[15] = systemic / in life observation / body weight / body weight gain + systemic / in life observation / food consumption / food consumption + …
[16] = systemic / in life observation / clinical signs / defecation (diarrhea) + systemic / in life observation / clinical signs / stiffness + …
[17] = systemic / in life observation / clinical signs / ataxia + systemic / in life observation / clinical signs / defecation (diarrhea) + …
[18] = group: developmental, developmental / developmental malformation / bone / enlarged fontanel + developmental / developmental malformation / bone / incomplete …
[19] = group: maternal, systemic / in life observation / body weight / body weight gain + systemic / in life observation / food consumption / food consumption + …
[20] = systemic / in life observation / body weight / body weight gain
[21] = systemic / in life observation / body weight / body weight gain + systemic / pathology gross / ear / lesion(s) (nos) + systemic / pathology …
[22] = systemic / clinical chemistry / alkaline phosphatase (alp/alk) / alkaline phosphatase (alp/alk)
[23] = systemic / clinical chemistry / alkaline phosphatase (alp/alk) / alkaline phosphatase (alp/alk) + systemic / in life observation / body …
[24] = group: offspring, developmental / offspring survival late / viability index / viability index + systemic / in life observation / body weight / offspring (pup…
[25] = group: offspring, systemic / in life observation / body weight / offspring (pup) weight gain + developmental / offspring survival late / viability index / …
[26] = group: parental, systemic / in life observation / body weight / body weight
[27] = systemic / in life observation / body weight / body weight + systemic / clinical chemistry / [other] / [other] + systemic / organ weight / …

Structure (SMILES): CC1(C)C(C=C(Cl)Cl)C1C(=O)OC(C#N)c1ccc(F)c(Oc2ccccc2)c1 (stereo not given) [Cyfluthrin]
- LOAEL (rat [1]; systemic / in life observation / body weight / body weight + systemic / in life observation / body weight / body weight gain): 11.6 mg/kg/day
- NEL (rat [1]; [12]): 2.6 mg/kg/day
- NOAEL (rat [1]; [12]): 2.6 mg/kg/day
- LEL (rat [1]; systemic / in life observation / body weight / body weight + systemic / in life observation / body weight / body weight gain + systemic / …): 11.6 mg/kg/day
- LEL (rat [2]; [13]): 38.9 mg/kg/day
- LOAEL (rat [2]; [13]): > 38.9 mg/kg/day
- NEL (rat [2]; [13]): 9.5 mg/kg/day
- NOAEL (rat [2]; [13]): ≥ 38.9 mg/kg/day
- LEL (rat [2]; [14]): 2.3 mg/kg/day
- NEL (rat [2]; [14]): < 2.3 mg/kg/day
- NOAEL (rat [2]; group: systemic, systemic / clinical chemistry / chloride / chloride + systemic / in life observation / body weight / body weight gain + systemic / in life …): 9.5 mg/kg/day
- LOAEL (rat [2]; group: systemic, systemic / in life observation / body weight / body weight gain + systemic / in life observation / clinical signs / lack of coordination + …): 38.9 mg/kg/day
- LEL (dog [3]): 10.6 mg/kg/day
- LOAEL (dog [3]): 10.6 mg/kg/day
- NEL (dog [3]): 2.43 mg/kg/day
- NOAEL (dog [3]): 2.43 mg/kg/day
- LOAEL (rabbit; systemic / in life observation / body weight / body weight gain + systemic / in life observation / food consumption / food consumption): 60 mg/kg/day
- LEL (rabbit; [15]): 60 mg/kg/day
- NEL (rabbit; [15]): 20 mg/kg/day
- NOAEL (rabbit; [15]): 20 mg/kg/day
- LOAEL (dog [4]; [16]): 15 mg/kg/day
- NEL (dog [4]; [16]): 1.62 mg/kg/day
- NOAEL (dog [4]; [16]): 5 mg/kg/day
- LEL (dog [4]; systemic / organ weight / thymus / absolute): 5 mg/kg/day
- LOAEL (dog [5]; systemic / in life observation / clinical signs / ataxia): 16 mg/kg/day
- LEL (dog [5]; [17]): 16 mg/kg/day
- NEL (dog [5]; [17]): 4 mg/kg/day
- NOAEL (dog [5]; [17]): 4 mg/kg/day
- LEL (rat [6]; [18]): 40 mg/kg/day
- LOAEL (rat [6]; [18]): 40 mg/kg/day
- NEL (rat [6]; [18]): 10 mg/kg/day
- NOAEL (rat [6]; [18]): 10 mg/kg/day
- LOAEL (rat [6]; group: maternal, systemic / in life observation / body weight / body weight gain + systemic / in life observation / food consumption / food consumption): 10 mg/kg/day
- LEL (rat [6]; [19]): 10 mg/kg/day
- NEL (rat [6]; [19]): 3 mg/kg/day
- NOAEL (rat [6]; [19]): 3 mg/kg/day
- LEL (mouse [7]; [20]): 31.9 mg/kg/day
- NEL (mouse [7]; [20]): < 31.9 mg/kg/day
- LOAEL (mouse [7]; [21]): 115 mg/kg/day
- NOAEL (mouse [7]; [21]): 31.9 mg/kg/day
- LEL (mouse [8]; [22]): 11.6 mg/kg/day
- NEL (mouse [8]; [22]): < 11.6 mg/kg/day
- LOAEL (mouse [8]; [23]): > 194 mg/kg/day
- NOAEL (mouse [8]; [23]): ≥ 194 mg/kg/day
- LOAEL (rat [9]; [24]): 12.3 mg/kg/day
- NOAEL (rat [9]; [24]): 3.8 mg/kg/day
- LEL (rat [9]; [25]): 3.8 mg/kg/day
- NEL (rat [9]; [25]): < 3.8 mg/kg/day
- LEL (rat [9]; [26]): 3.8 mg/kg/day
- NEL (rat [9]; [26]): < 3.8 mg/kg/day
- LOAEL (rat [9]; group: parental, systemic / in life observation / body weight / body weight gain): 37.2 mg/kg/day
- NOAEL (rat [9]; group: parental, systemic / in life observation / body weight / body weight gain + systemic / in life observation / body weight / body weight): 12.3 mg/kg/day
- LOAEL (rat [10]; systemic / in life observation / body weight / body weight): 19.2 mg/kg/day
- LEL (rat [10]; systemic / in life observation / body weight / body weight + systemic / clinical chemistry / [other] / [other]): 6.19 mg/kg/day
- NEL (rat [10]; [27]): 2.02 mg/kg/day
- NOAEL (rat [10]; [27]): 6.19 mg/kg/day
- LEL (dog [11]): 13.9 mg/kg/day
- LOAEL (dog [11]): 13.9 mg/kg/day
- NEL (dog [11]): 2.36 mg/kg/day
- NOAEL (dog [11]): 2.36 mg/kg/day
